Experiment [1] has as its system IL-17A induced secretion of IL-6 in primary human RASF cells. The experiment is described as follows: Inhibition of IL17A induced secretion of IL6 in human rheumatoid arthritis synovial fibroblast (RASF) cells. It is filed as cell-based. Here is the method:
This assay was used to determine the extent of inhibition of IL-17A induced secretion of IL-6 in primary human rheumatoid synovial fibroblast (RASF) cells by compounds of the invention. IL-17A is known to stimulate IL-6 production in RASF cells.
Low passage (passage 2-8) Primary human RASF cells (Asterand) were maintained in maintenance medium. Cells were detached from flasks by tryptic digestion and the cell density of the suspension determined. To each well of a 96 well culture plate was added 100 μL of seeding medium containing 50,000 cells/mL and the plate incubated overnight in a humidified 37° C., 5% CO2 incubator. The medium was replaced with fresh assay medium and cells were incubated for additional 5 hours in a humidified 37° C., 5% CO2 incubator prior to stimulation with recombinant human IL-17A (“rhIL-17A”). Prior to addition to cells, rhIL-17A (30 ng/mL) in assay medium was incubated with either DMSO alone, compounds, or anti-IL17 receptor antibody (3 μg/mL) for 1 hour at 37° C. The final concentration of DMSO in all samples was 0.25%. The final concentration of compounds varied from 0.03 μM to 25 μM.
Immediately before stimulation, cells were washed once with fresh assay medium. Then, 100 μL of the test samples was added in triplicate wells and the plates incubated for 20 hours in a humidified 37° C., 5% CO2 incubator. The assay medium from each well was collected and the IL-6 concentration in cell culture supernatants was determined by ELISA either immediately or after storage at −20° C.
A water-soluble tetrazolium salt (WST1) viability assay was immediately performed on the cells after the conditioned medium was collected using a WST1 reagent purchased from Roche. The concentration of IL-6 obtained from ELISA was normalized by the WST1 data.

Experiment [2] addresses T1, biotinylated human IL-17 (binding to IL17R/Fc) (Homo sapiens, UniProt Q16552).
T1 construct: purchased R&D Systems 317-ILB (IL-17, biotinylated); 177-IR (IL17R/Fc)
T1 sequence (Q16552 20-155 limits assumed): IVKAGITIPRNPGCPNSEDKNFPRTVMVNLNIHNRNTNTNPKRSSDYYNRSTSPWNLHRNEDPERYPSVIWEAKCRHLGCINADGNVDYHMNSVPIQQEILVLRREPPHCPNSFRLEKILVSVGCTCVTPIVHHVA
The experiment is described as follows: IL-17 competition ELISA II (captured IL17R/Fc, biotinylated IL-17). Summed up: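 Anti-human IgG-coated plates captured IL17R/Fc (10 nM), then compound (5-fold dilutions from 1 μM) and biotinylated human IL-17 (20 nM stock) were added for 30 min at room temperature in PBST. Bound IL-17 detected by streptavidin-HRP/TMB at 450 nm. IC50 from 4-parameter logistic fit between no-competitor and blank controls.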

Where two headings read alike, the source gives them in different places. Bounds are passed on as bounds.

The term IC50 denotes the midpoint of a concentration-inhibition curve. Turning to `NC(=O)C[C@H]1NC(=O)[C@@H](Cc2ccc(NC(=O)[C@H](Cc3ccccc3Cl)NC(=O)Cc3ccc(CO)cc3)cc2)NC(=O)CC2(CCCC2)CC(=O)N[C@H](C(=O)O)CCCCNC1=O` [Compound 656], the IC50 was less than 0.1 µM in experiment [1] (Homo sapiens, Fibroblast) and less than 0.1 µM in experiment [2].
For the molecule `CN(C)CCOc1ccc(CC(=O)N[C@H](C(=O)Nc2ccc(C[C@H]3NC(=O)CC4(CCCC4)CC(=O)NCCCCCNC(=O)[C@@H](Cc4ccccc4)NC3=O)cc2)C2CCCCC2)cc1` [Compound 437], the IC50 in experiment [1] (Homo sapiens, Fibroblast) fell in the range of 1 to 10 µM; in experiment [2], 0.1 to 1 µM.
Regarding `O=C1CC2(CCCC2)CC(=O)N[C@H](Cc2ccc(NC(=O)[C@H](Cc3ccccc3Cl)NC(=O)Cc3ccc(CO)cc3)cc2)C(=O)N[C@H](Cc2c[nH]c3ccccc23)C(=O)NCCCC[C@@H](C(=O)O)N1` [Compound 661], the IC50 in experiment [1] (Homo sapiens, Fibroblast) is less than 0.1 µM; in experiment [2], less than 0.1 µM.
Consider `C[C@H]1NC(=O)[C@@H](Cc2ccc(NC(=O)[C@H](Cc3ccccc3Cl)NC(=O)Cc3ccc(F)cc3)cc2)NC(=O)CC2(CCC2)CC(=O)NCCCCCNC1=O` [Compound 535], for which the IC50 in experiment [1] (Homo sapiens, Fibroblast) is 1 to 10 µM; in experiment [2], less than 0.1 µM.
For `O=C1CC2(CCCC2)CC(=O)N[C@H](Cc2ccc(NC(=O)[C@H](Cc3ccccc3Cl)NC(=O)c3ccccc3)cc2)C(=O)NCCOCCOCCN1` [Compound 522], the IC50 in experiment [1] (Homo sapiens, Fibroblast) is 1 to 10 µM; in experiment [2], less than 0.1 µM.
Taken in the same sequence, the figures for `C[C@H]1NC(=O)[C@@H](Cc2ccc(NC(=O)[C@H](Cc3ccccc3Cl)NC(=O)Cc3ccc(F)cc3)cc2)NC(=O)CC2(CCCC2)CC(=O)N(C)CCCCCNC1=O` [Compound 469] were 1 to 10 µM and less than 0.1 µM.
As to `O=C1CC2(CCCC2)CC(=O)NC(Cc2ccc(NC(=O)C(Cc3ccccc3Cl)NC(=O)c3cccnc3)cc2)C(=O)NCCOCCOCCN1` (stereo not shown) [Compound 406], the IC50 in experiment [1] was 1 to 10 µM; in experiment [2], less than 0.1 µM.
As for `C[C@H]1NC(=O)[C@@H](Cc2ccc(NC(=O)[C@H](Cc3ccccc3Cl)Nc3nc4ccccc4o3)cc2)NC(=O)CC2(CCCC2)CC(=O)NCCCCCNC1=O` [Compound 555], the IC50 in experiment [1] (Homo sapiens, Fibroblast) is less than 0.1 µM; in experiment [2], less than 0.1 µM.
On to `NC(=O)CC[C@H]1NC(=O)[C@@H](Cc2ccc(NC(=O)[C@H](Cc3ccccc3Cl)NC(=O)Cc3ccc(F)cc3)cc2)NC(=O)CC2(CCCC2)CC(=O)NCCCCCNC1=O` [Compound 479], for which the IC50 in experiment [1] (Homo sapiens, Fibroblast) was less than 0.1 µM; in experiment [2], less than 0.1 µM.
Regarding `C[C@H]1NC(=O)[C@@H](Cc2ccc(NC(=O)[C@H](Cc3ccccc3Cl)NC(=O)[C@@H](O)c3ccccc3)cc2)NC(=O)CC2(CCCC2)CC(=O)NCCCCCNC1=O` [Compound 550], the IC50 is 1 to 10 µM in experiment [1] (Homo sapiens, Fibroblast) and less than 0.1 µM in experiment [2].
With `O=C1CC2(CCCC2)CC(=O)N[C@H](Cc2ccc(NC(=O)[C@@H](NC(=O)Cc3ccc(F)cc3)C3CCCCC3)cc2)C(=O)NCCOCCOCCN1` [Compound 424], the IC50 in experiment [1] (Homo sapiens, Fibroblast) was greater than 10 µM; in experiment [2] it was less than 0.1 µM.
For the molecule `CN1CCCCCN(C)C(=O)[C@@H](CCC(N)=O)NC(=O)[C@@H](Cc2ccc(NC(=O)[C@@H](NC(=O)Cc3ccc(CO)cc3)C3CCCCC3)cc2)NC(=O)CC2(CCCC2)CC1=O` [Compound 653], the IC50 was 1 to 10 µM in experiment [1] (Homo sapiens, Fibroblast) and less than 0.1 µM in experiment [2].
Consider `Cc1ccccc1CC(=O)N[C@@H](Cc1ccccc1Cl)C(=O)Nc1ccc(C[C@H]2NC(=O)CC3(CCCC3)CC(=O)NCCOCCOCCNC2=O)cc1` [Compound 495], for which the IC50 was 1 to 10 µM in experiment [1] (Homo sapiens, Fibroblast) and less than 0.1 µM in experiment [2].
Regarding `O=C1CC2(CCCC2)CC(=O)N[C@H](Cc2ccc(NC(=O)[C@H](Cc3ccccc3Cl)NC(=O)Cc3ccc(F)cc3)cc2)C(=O)N[C@H](CC2CCCCC2)C(=O)NCCCCCN1` [Compound 499], the IC50 is 0.1 to 1 µM in experiment [1] (Homo sapiens, Fibroblast) and less than 0.1 µM in experiment [2].
As for `C[C@H]1NC(=O)[C@@H](Cc2ccc(NC(=O)[C@@H](NC(=O)C(F)(F)c3ccccc3)C3CCCCC3)cc2)NC(=O)CC2(CCCC2)CC(=O)N(C)CCCCCN(C)C1=O` [Compound 600], the IC50 is 1 to 10 µM in experiment [1] (Homo sapiens, Fibroblast) and less than 0.1 µM in experiment [2].
Taken in the same sequence, the figures for `CN1CCCCCNC(=O)CNC(=O)[C@@H](Cc2ccc(NC(=O)[C@H](Cc3ccccc3Cl)NC(=O)Cc3cccc(O)c3)cc2)NC(=O)CC2(CCCC2)CC1=O` [Compound 457] were 1 to 10 µM and less than 0.1 µM.
Turning to `O=C1CC2(CCCC2)CC(=O)N[C@H](Cc2ccc(NC(=O)[C@H](Cc3ccccc3Cl)NC(=O)Cc3ccc(CO)cc3)cc2)C(=O)N[C@H](Cc2cscn2)C(=O)NCCCC[C@@H](C(=O)O)N1` [Compound 658], the IC50 was less than 0.1 µM in experiment [1] (Homo sapiens, Fibroblast) and less than 0.1 µM in experiment [2].
`CC(O)[C@H]1NC(=O)[C@@H](Cc2ccc(NC(=O)[C@H](Cc3ccccc3Cl)NC(=O)C(F)(F)c3ccccc3)cc2)NC(=O)CC2(CCCC2)CC(=O)N(C)CCOCCN(C)C1=O` (stereo partly shown) [Compound 639]: the IC50 was 1 to 10 µM in experiment [1] (Homo sapiens, Fibroblast) and less than 0.1 µM in experiment [2].
For the molecule `CC1NC(=O)C(Cc2ccc(NC(=O)C(Cc3ccccc3Cl)NC(=O)C(F)(F)c3ccccc3)cc2)NC(=O)CC2(CCCC2)CC(=O)N(C)CCCCCN(C)C1=O` (stereo not shown) [Compound 566], the IC50 in experiment [1] is 0.1 to 1 µM; in experiment [2], less than 0.1 µM.
For the molecule `C[C@H]1NC(=O)[C@@H](Cc2ccc(NC(=O)[C@H](Cc3ccccc3Cl)NC(=O)C(F)(F)c3ccccc3)cc2)NC(=O)CC2(CCCC2)CC(=O)N(C)CCOCCN(C)C1=O` [Compound 567], the IC50 was 0.1 to 1 µM in experiment [1] (Homo sapiens, Fibroblast) and less than 0.1 µM in experiment [2].
For the molecule `O=C1CC2(CCCC2)CC(=O)N[C@H](Cc2ccc(NC(=O)[C@H](Cc3ccccc3Cl)NC(=O)Cc3ccc(F)cc3)cc2)C(=O)NCC#CCCCCCN1` [Compound 446], the IC50 in experiment [1] (Homo sapiens, Fibroblast) was 0.1 to 1 µM; in experiment [2], less than 0.1 µM.
`C[C@H]1NC(=O)[C@@H](Cc2ccc(NC(=O)[C@H](Cc3ccccc3Cl)NC(=O)C(F)(F)c3ccccc3)cc2)NC(=O)CC2(CCCC2)CC(=O)N(C)CCN(C)CCN(C)C1=O` [Compound 540]: the IC50 was 1 to 10 µM in experiment [1] (Homo sapiens, Fibroblast) and less than 0.1 µM in experiment [2].
For `O=C1CC2(CCCC2)CC(=O)N[C@H](Cc2ccc(NC(=O)[C@H](Cc3ccccc3Cl)NC(=O)Cc3ccc(CO)cc3)cc2)C(=O)N[C@H](Cc2c[nH]cn2)C(=O)NCCCC[C@@H](C(=O)O)N1` [Compound 662], the IC50 was less than 0.1 µM in experiment [1] (Homo sapiens, Fibroblast) and less than 0.1 µM in experiment [2].
For `CN1C(=O)CC2(CCCC2)CC(=O)NCCCCCNC(=O)CNC(=O)[C@H]1Cc1ccc(NC(=O)[C@H](Cc2ccccc2Cl)NC(=O)Cc2ccccc2)cc1` [Compound 413], the IC50 in experiment [1] (Homo sapiens, Fibroblast) is greater than 10 µM; in experiment [2], less than 0.1 µM.
For the molecule `CC(C)C[C@H]1NC(=O)[C@@H](Cc2ccc(NC(=O)[C@H](Cc3ccccc3Cl)NC(=O)Cc3ccc(CO)cc3)cc2)NC(=O)CC2(CCCC2)CC(=O)N[C@H](C(=O)O)CCCCNC1=O` [Compound 660], the IC50 is less than 0.1 µM in experiment [1] (Homo sapiens, Fibroblast) and less than 0.1 µM in experiment [2].
On to `C[C@H]1NC(=O)[C@@H](Cc2ccc(NC(=O)[C@H](Cc3ccccc3Cl)NC(=O)Cc3ccc(F)cc3)cc2)NC(=O)CC2(CCCC2)CC(=O)N[C@H](C(=O)O)CCCCNC1=O` [Compound 529], for which the IC50 was less than 0.1 µM in experiment [1] (Homo sapiens, Fibroblast) and less than 0.1 µM in experiment [2].
Take `Cc1ccccc1C[C@H](NC(=O)Cc1ccc(F)cc1)C(=O)Nc1ccc(C[C@H]2NC(=O)CC3(CCCC3)CC(=O)NCCCCCNC(=O)[C@@H](C)NC2=O)cc1` [Compound 476]: the IC50 in experiment [1] (Homo sapiens, Fibroblast) was 0.1 to 1 µM; in experiment [2], less than 0.1 µM.
As to `O=C1CC2(CCCC2)CC(=O)N[C@H](Cc2ccc(NC(=O)[C@H](Cc3ccccc3Cl)NC(=O)Cc3cccc(O)c3)cc2)C(=O)NCCCCCCCCN1` [Compound 441], the IC50 in experiment [1] (Homo sapiens, Fibroblast) is 0.1 to 1 µM; in experiment [2] it was less than 0.1 µM.
As for `C[C@H]1NC(=O)[C@@H](Cc2ccc(NC(=O)[C@H](Cc3ccccc3Cl)NC(=O)Cc3ccc(N(C)C)cc3)cc2)NC(=O)CC2(CCCC2)CC(=O)N(C)CCN(C)CCN(C)C1=O` [Compound 562], the IC50 was 1 to 10 µM in experiment [1] (Homo sapiens, Fibroblast) and less than 0.1 µM in experiment [2].
`C[C@H]1NC(=O)[C@@H](Cc2ccc(NC(=O)[C@H](Cc3ccccc3C(F)(F)F)NC(=O)C3(c4ccc(F)cc4)CC3)cc2)NC(=O)CC2(CCCC2)CC(=O)N(C)CCCCCNC1=O` [Compound 507]: the IC50 in experiment [1] (Homo sapiens, Fibroblast) is 1 to 10 µM; in experiment [2] it was less than 0.1 µM.
As to `O=C1CC2(CCCC2)CC(=O)N[C@H](Cc2ccc(NC(=O)[C@H](Cc3ccccc3Cl)NC(=O)Cc3ccc(F)cc3)cc2)C(=O)NCC#CCCCCN1` [Compound 497], the IC50 is 1 to 10 µM in experiment [1] (Homo sapiens, Fibroblast) and less than 0.1 µM in experiment [2].
Regarding `C[C@H]1NC(=O)[C@@H](Cc2ccc(NC(=O)[C@H](Cc3ccccc3Cl)NC(=O)C(F)(F)c3ccccc3)cc2)NC(=O)CC2(CCC2)CC(=O)NCCCCCNC1=O` [Compound 536], the IC50 was 0.1 to 1 µM in experiment [1] (Homo sapiens, Fibroblast) and less than 0.1 µM in experiment [2].

The record behind these values is patent US9284283B2, “Macrocyclic compounds for modulating IL-17” (ENSEMBLE THERAPEUTICS CORPORATION, priority 2012, dated 2016).
